This is an account of results in patent US6255497A, “Method for the inhibition of ALDH-I useful in the treatment of alcohol dependence or alcohol abuse” (priority 1998, dated 2001).

In brackets after ≈: the same amount, converted by molar mass. Read-outs that look alike come from different tables or passages of the source.

The target of data set [1] is T1, ALDH-I (Homo sapiens, UniProt P05091).
T1 sequence (P05091 18-517): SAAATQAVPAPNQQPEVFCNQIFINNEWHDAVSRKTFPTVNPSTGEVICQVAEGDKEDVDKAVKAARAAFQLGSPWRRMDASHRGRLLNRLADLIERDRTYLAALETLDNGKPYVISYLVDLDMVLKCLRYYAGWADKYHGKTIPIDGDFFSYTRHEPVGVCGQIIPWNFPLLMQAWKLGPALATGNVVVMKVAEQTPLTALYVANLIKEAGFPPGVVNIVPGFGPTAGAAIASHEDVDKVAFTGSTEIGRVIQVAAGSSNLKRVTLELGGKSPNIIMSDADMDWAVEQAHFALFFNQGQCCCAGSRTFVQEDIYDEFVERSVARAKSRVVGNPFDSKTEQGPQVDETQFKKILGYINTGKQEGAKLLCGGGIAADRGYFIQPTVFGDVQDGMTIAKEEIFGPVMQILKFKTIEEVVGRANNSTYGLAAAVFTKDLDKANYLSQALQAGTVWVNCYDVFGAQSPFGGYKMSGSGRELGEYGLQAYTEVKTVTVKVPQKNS
The data set is described as follows: ALDH-I inhibition by structurally related compounds, acetaldehyde as substrate. It counts as biochemical. More on the design: A liver sample (50 g wet weight) with the usual Caucasian ALDH phenotype (both ALDH-I and ALDH-II present); from tissue; host or cells: human liver (autopsy), purified by CM-52, AMP-agarose and DEAE HPLC. The protocol:
(§1) *ALDH activities were assayed at 25° C. in 0.1 M sodium
(§2) pyrophosphate buffer pH 9.5 containins 0.15 M KCl, 1 mM NAD^+, various
(§3) concentrations of inhibitors and 5 and 200 μM acetaldehyde for ALDH-I
(§4) and ALDH-II, respectively.
For controls, 10 .eta.L of methanol was added to the assay medium. In a standard ALDH-I assay, the assay medium contains 0.1 M sodium pyrophosphate pH 9.5, 0.15 M KCl, 1 mM NAD^+, 1% methanol, 5 μM acetaldehyde, 5-10 nM ALDH-I and various concentrations of inhibitor. […] (Fong et al., 1989, supra). The inhibition of ALDH-I by the inhibitors was calculated as: [formula]
(§5) where Vo is the enzyme reaction rate measured in the absence of inhibitor, and where Vi is the enzyme reaction rate measured in the presence of inhibitor. […] IC50 values are related to the underlying Ki values.

Data set [2] addresses T2, ALDH-II (Homo sapiens, UniProt P00352).
T2 sequence (P00352 1-501): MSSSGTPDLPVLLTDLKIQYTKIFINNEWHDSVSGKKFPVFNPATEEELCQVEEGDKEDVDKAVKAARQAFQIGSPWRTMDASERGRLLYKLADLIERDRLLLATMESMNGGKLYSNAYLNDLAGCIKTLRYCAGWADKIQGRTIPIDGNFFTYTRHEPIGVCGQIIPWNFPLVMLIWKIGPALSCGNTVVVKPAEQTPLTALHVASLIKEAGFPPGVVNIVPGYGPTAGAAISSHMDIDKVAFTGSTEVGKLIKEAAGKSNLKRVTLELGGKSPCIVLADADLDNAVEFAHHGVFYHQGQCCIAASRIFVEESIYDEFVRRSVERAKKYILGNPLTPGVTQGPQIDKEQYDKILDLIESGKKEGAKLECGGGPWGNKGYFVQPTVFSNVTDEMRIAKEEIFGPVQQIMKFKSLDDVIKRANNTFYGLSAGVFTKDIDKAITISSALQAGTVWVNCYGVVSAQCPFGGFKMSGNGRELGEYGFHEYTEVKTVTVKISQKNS
The data set is described as follows: ALDH-II inhibition by structurally related compounds, acetaldehyde as substrate. It is filed as biochemical. More on the design: A liver sample (50 g wet weight) with the usual Caucasian ALDH phenotype (both ALDH-I and ALDH-II present); from tissue; host or cells: human liver (autopsy), purified by CM-52, AMP-agarose and DEAE HPLC. As to the method: as §1, §2, §3, §4
(§6) For the study of the inhibition of ALDH-I by structurally related compounds to generate the data shown in Tables IV and V, each individual compound was dissolved at different concentrations in methanol and was added to the assay medium as 10 μL aliquots. For controls, 10 […] of methanol was added to the assay medium. In a standard ALDH-I assay, the assay medium contains 0.1 M sodium pyrophosphate pH 9.5, 0.15 M KCl, 1 mM NAD^+, 1% methanol, 5 μM acetaldehyde, 5-10 nM ALDH-I and various concentrations of inhibitor. The enzyme reaction rates were measured by monitoring the production of NADH at 340 nm (ε=6.22 mM^-1 cm^-1) with a Varian Cary 219 spectrophotometer thermostated at 25° C. (Fong et al., 1989, supra). The inhibition of ALDH-I by the inhibitors was calculated as: [formula]
as §5

Data set [3] addresses T1, ALDH-I. Description: Reversibility of ALDH-I inhibition (preincubation, then dilution). It is filed as biochemical. More on the design: A liver sample (50 g wet weight) with the usual Caucasian ALDH phenotype (both ALDH-I and ALDH-II present); from tissue; host or cells: human liver (autopsy), purified by CM-52, AMP-agarose and DEAE HPLC.
The target in data set [4] is T1, ALDH-I. The data set is described as follows: Inhibition kinetics of ALDH-I, initial velocity method, formaldehyde as substrate. The following applies: for potency as ALDH-I inhibitor, fold less than that of daidzin / relative potency as ALDH-I inhibitor, in words: compared with daidzin. The protocol:
The kinetic data were analyzed by standard graphical methods.

The target of data set [5] is T2, ALDH-II. Description: Inhibition kinetics of ALDH-II, initial velocity method, formaldehyde as substrate.
Description: (§7) The inhibition kinetics were studied by the initial velocity method (Dixon and Webb, 1979, Enzymes, 3rd ed., Longman, Great Britain). […] The initial reaction rates were measured in a pH 9.5 assay medium 0.1 11 in glycine-NaOH, 0. […] The enzyme reaction rates were followed by monitoring the production of NADH at 340 nm (ε-6.22 mM^-1 cm^-1) with a Varian Cary 219 spectrophotometer thermostated at 25° C. The kinetic data were analyzed by standard graphical methods.
Data set [6] deals with T2, ALDH-II. The data set is described as follows: Competitive inhibition of ALDH-II with acetaldehyde as substrate. It is filed as biochemical. More on the design: A liver sample (50 g wet weight) with the usual Caucasian ALDH phenotype (both ALDH-I and ALDH-II present); from tissue; host or cells: human liver (autopsy), purified by CM-52, AMP-agarose and DEAE HPLC. The note with it: acetaldehyde as substrate, competitive; read-out: Ki, ALDH-II.

The next data set can be described thus: physchem. The following applies: water.
The next data set deals with ALDH-I or ALDH-II. Description: Survey of structurally related compounds for ALDH inhibition. It counts as biochemical, human. As to the method: as §6, §5
A further data set has as its system golden hamsters. Description: Dose effect on free choice ethanol intake in golden hamsters, i.p. The note with it: 10 mg/day, i.p. It counts as in vivo, golden hamster. An excerpt: It is common practice in quantitative drug studies with rodents to use intraperitoneal (i.p.) administration to deliver drug doses accurately (Goodman and Gilman, 1975, The Pharmacological Basis of Therapeutics, 5th ed., Macmillan, N.Y., p. 8). In particular, this method avoids variability introduced by technical difficulties of oral administration via feeding (full versus empty stomach, etc.), variations in drug transport in the gastrointestinal tract (variations in intestinal fauna and flora, individual variations in absorption rate expected of outbred animals, etc.) and other factors. […] As a control 1 ml of sterile saline was injected i.p. daily during the baseline period (typically 7-9 days) that establishes drinking preference without the drug. Saline injection i.p. had no effect on the drinking behavior of golden hamsters. Ethanol was provided as a 20% solution. Hamsters could be used more than once (but were not used more than three times) in a cycle of baseline saline injections followed by drug injections, each cycle with the drug at a different dose.
The response to daidzin treatment was computed as:
% Response=(Vo -Vd)×100/Vo

Substrate in data set [7]: C=O
Description: purified protein, by the assay type. The note with it: pH 9.5; 25.0 °C.
Description: as §7

Setting [8] is: 5 μM acetaldehyde, 1 mM NAD+, pH 9.5, 25° C., read-out: IC50, ALDH-I.
Setting [9] is: 200 μM acetaldehyde, 1 mM NAD+, pH 9.5, 25° C., read-out: IC50, ALDH-II.

On to `COc1ccc(-c2cc(=O)c3c(O)cc(O)cc3o2)cc1` [Acacetin], for which the IC50 on ALDH-I [1] (setting [8]) and at ALDH-II [2] (setting [9]) was 5 µM throughout.
In the case of `O=c1c(-c2ccc(O)cc2)coc2cc(O[C@@H]3O[C@H](CO)[C@@H](O)[C@H](O)[C@H]3O)cc(O)c12` [Genistin], the “reversibility of ALDH-I inhibition” value at ALDH-I [3] is on record as “reversible selective inhibitor of ALDH-I”. At ALDH-I [1] (setting [8]), the IC50 – broadly, the concentration needed to halve the response being measured – was 2 µM. Also, the IC50 against ALDH-II [2] was over 20 µM. Also, at ALDH-I [4], the affinity corresponds to a Ki of 360 nM; the “selectivity of ALDH inhibition” value is given as “selectively inhibited ALDH-I”; the “potency as ALDH-I inhibitor, fold less than that of daidzin” value is listed as “approximately 10 fold”; the “relative potency as ALDH-I inhibitor, in words” value was “nearly an order of magnitude less potent as an inhibitor than daidzin”. Besides, the Ki (commonly the equilibrium dissociation constant of an inhibitor or competing ligand from its target) at ALDH-II [5] was over 20 µM.
With `O=C(O)CCCCCCCCCCOc1ccc2c(=O)c(-c3ccc(O)cc3)coc2c1` [Daidzein 7-(ω-carboxydecyl) ether, daidzein 7-(ω-carboxydecyl)ether], the Ki on ALDH-II [6] came to 185 nM. Further, the concentration in solution in the data set “physchem” (solubility) was 9 mM (≈ 3950 µg/mL).
`CN1CC(=O)NC1=O` [1-methylhydantoin]: the “ALDH inhibition” value in the data set on ALDH-I or ALDH-II is “not inhibitory”.
Same read-out and setting: with `c1ccc(-c2ccc3ccccc3n2)cc1` [2-phenylquinoline] the entry was “did not inhibit”.
Regarding `O=c1cc(-c2ccccc2)oc2ccccc12` [Flavone], the IC50 on ALDH-I [1] (setting [8]) was 10 µM; on ALDH-II [2] (setting [9]), 5 µM.
As to `COc1ccc(-c2coc3cc(O[C@@H]4O[C@H](CO)[C@@H](O)[C@H](O)[C@H]4O)ccc3c2=O)cc1` [Ononin], on ALDH-II [2] (setting [9]), the IC50 is 20 µM.
Same read-out and setting: then `O=c1cc(-c2ccccc2)c2ccc(O)cc2o1` [7-Hydroxy-4-phenylcoumarin], with 0.3 µM.
As for `O=C(O)CCCCCOc1ccc2c(=O)c(-c3ccc(O)cc3)coc2c1` [Daidzein 7-(ω-carboxypentyl) ether, daidzein 7-(ω-carboxypentyl) ether], on ALDH-II [6], the Ki was 450 nM. For the same molecule, the “suppression of alcohol intake, hamster C14” value in the data set on golden hamsters (trained hamster C14) is listed as 56%. Besides, in the data set on golden hamsters (trained hamster D6), the “suppression of alcohol intake, hamster D6” value is 72%. Also, the concentration in solution in the data set “physchem” (solubility) came to 26 mM (≈ 9580 µg/mL).
Turning to `CC(=O)Oc1ccc2c(=O)c(Cc3ccccc3)c(C)oc2c1OC(C)=O` [3-Benzyl-7,8-diacetoxy-2-methylchromone], the IC50 at ALDH-I [1] (setting [8]) is 10 µM; at ALDH-II [2] (setting [9]), 3 µM.
For `Cc1ccc2c(c1)OC(=O)CC2c1ccccc1` (stereo not shown) [7-Methyl-4-phenyl-3,4-dihydrocoumarin], the IC50 at ALDH-II [2] (setting [9]) came to 0.5 µM.
With `NC(=O)NC1NC(=O)NC1=O` (stereo not shown) [allantoin], the “ALDH inhibition” value in the data set with ALDH-I or ALDH-II is reported as “not inhibitory”.
For the molecule `CC1=C(c2ccccc2)C(=O)OC2CC(Cl)CCC12` (stereo not shown) [7-Chloro-4A,5,6,7,8,8A-hexahydro-4-methyl-3-phenylcoumarin], the IC50 on ALDH-I [1] (setting [8]) and at ALDH-II [2] (setting [9]) was 1 µM in each case.
Molecule `COc1cc(O)c2c(=O)c(-c3ccc(O)cc3)coc2c1` [Prunetin] registered an IC50 at ALDH-I [1] of 1 µM. For the same molecule, the IC50 at ALDH-II [2] was 12 µM. For the same molecule, on ALDH-I [4], the Ki came out at 300 nM; the “selectivity of ALDH inhibition” value is given as “selectively inhibited ALDH-I”; the “potency as ALDH-I inhibitor, fold less than that of daidzin” value was “approximately 10 fold”; the “relative potency as ALDH-I inhibitor, in words” value was “nearly an order of magnitude less potent as an inhibitor than daidzin”. The same molecule yielded an inhibition constant Ki on ALDH-II [5] of 12 µM.
In the case of `CC(C)c1ccc(-c2coc3ccccc3c2=O)cc1` [4'-Isopropylisoflavone], the results for the IC50 on ALDH-I [1] (setting [8]) and on ALDH-II [2] (setting [9]) were 5 µM and 1.5 µM, respectively.
For `O=c1c(-c2ccccc2)c(-c2ccccc2)oc2cc(O)ccc12` [3-Phenyl-7-hydroxyflavone], in that order: 10 µM and 2 µM.

B1: human ALDH-I (Homo sapiens) (protein)
chain: T1 sequence (P05091 18-517)
For B1, the Km (in general, the substrate concentration at which the rate is half of its maximum) in [7] was 800 µM.
